Experimental data reported in US6680318B2, “Piperazinomethylbenzamides as delta-opioid receptor agonists” (AstraZeneca AB, priority 1999, dated 2004).
Structures can show the parent of a compound that is named as a salt. Where two headings read alike, the source gives them in different places.

Tests used:
HDelta = target: T1, HDelta (Homo sapiens, UniProt P41143); assay: HDelta agonist activity (EC50, % EMAX); format: biochemical
T1 construct: expressed in transfected cells; host or cells: human 293S cells (geneticin-selected)

[1] = MLM metabolic stability (% remaining); format: in vitro ADME, mouse
Mouse Brain = target: T2, Mouse Brain (Mus musculus, UniProt P32300); assay: Mouse Brain agonist activity (EC50, % EMAX); format: biochemical
T2 construct: from tissue; host or cells: mouse brain

[2] = RLM metabolic stability (% remaining); format: in vitro ADME, rat
[3] = target: T3, cloned human δ receptors (HDelta) (Homo sapiens, UniProt P41143); assay: Binding assay on membranes of 293S cells expressing cloned human δ receptor (HDelta)
T3 construct: expressed in transfected cells; host or cells: human 293S cells (geneticin-selected)

Rat Brain = Rat Brain (Rattus norvegicus, UniProt P33533); assay: Rat Brain agonist activity (EC50, % EMAX); format: biochemical
[4] = 10000 (concentration, unit not given)
[5] = 100000 (concentration, unit not given)

T1 sequence (P41143 whole entry): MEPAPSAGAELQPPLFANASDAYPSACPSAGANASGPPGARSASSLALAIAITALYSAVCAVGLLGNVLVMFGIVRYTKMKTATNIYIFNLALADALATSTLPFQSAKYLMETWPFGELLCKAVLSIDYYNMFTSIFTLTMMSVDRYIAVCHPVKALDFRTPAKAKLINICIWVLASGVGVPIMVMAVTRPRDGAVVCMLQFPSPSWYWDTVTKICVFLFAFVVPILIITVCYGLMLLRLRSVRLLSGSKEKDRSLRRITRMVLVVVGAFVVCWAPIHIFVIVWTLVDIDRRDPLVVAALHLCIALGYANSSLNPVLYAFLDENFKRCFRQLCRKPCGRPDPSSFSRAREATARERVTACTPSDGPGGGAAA
Rat Brain, sequence (P33533 whole entry): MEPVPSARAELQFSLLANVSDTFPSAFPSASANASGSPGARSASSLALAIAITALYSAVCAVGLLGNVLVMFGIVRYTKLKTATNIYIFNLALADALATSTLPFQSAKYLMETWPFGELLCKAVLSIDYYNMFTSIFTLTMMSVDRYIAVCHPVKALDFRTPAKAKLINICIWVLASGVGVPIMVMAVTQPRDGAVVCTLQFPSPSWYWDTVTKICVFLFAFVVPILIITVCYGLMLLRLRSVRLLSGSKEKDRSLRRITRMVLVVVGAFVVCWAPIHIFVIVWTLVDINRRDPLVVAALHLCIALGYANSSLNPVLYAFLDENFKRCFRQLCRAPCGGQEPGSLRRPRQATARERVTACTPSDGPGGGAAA
T2 sequence (P32300 whole entry): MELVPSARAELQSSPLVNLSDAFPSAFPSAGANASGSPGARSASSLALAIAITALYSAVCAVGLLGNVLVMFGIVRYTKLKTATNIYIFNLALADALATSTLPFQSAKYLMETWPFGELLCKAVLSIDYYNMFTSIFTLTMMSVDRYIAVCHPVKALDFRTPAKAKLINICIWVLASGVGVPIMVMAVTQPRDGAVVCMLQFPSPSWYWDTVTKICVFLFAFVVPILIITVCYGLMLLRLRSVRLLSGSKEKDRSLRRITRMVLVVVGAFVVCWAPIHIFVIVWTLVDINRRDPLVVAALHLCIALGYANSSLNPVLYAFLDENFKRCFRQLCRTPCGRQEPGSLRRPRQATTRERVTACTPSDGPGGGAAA
T3 sequence (P41143 whole entry): as the sequence (P41143 whole entry) above

| Structure (SMILES) | EC50 (HDelta) [nM] | Emax (HDelta) [%] | MLM 10000 % rem. [1, 4] [%] | MLM 100000 % rem. [1, 5] [%] | EC50 (Mouse Brain) [nM] | Emax (Mouse Brain) [%] | RLM 10000 % rem. [2, 4] [%] | RLM 100000 % rem. [2, 5] [%] | IC50 [3] [nM] | Emax (Rat Brain) [%] | EC50 (HDelta; read-out: HDelta EC50) [nM] |
| --- | --- | --- | --- | --- | --- | --- | --- | --- | --- | --- | --- |
| CCN(CC)C(=O)c1ccc(C(c2cccc3c2OC(C)(C)C3)N2CCN(Cc3ccccn3)CC2)cc1 (stereo not shown) [Example 4, 4-{(2,2-dimethyl-2,3-dihydro-1-benzofuran-7-yl)[4-(2-pyridinylmethyl)-1-piperazinyl]methyl}-N,N-diethylbenzamide Ditrifuroacetae] | 7.38 | 104 | 44.5 | 93 | 144 | 118 | 42.5 | 90.5 | 3.26 | 118 |  |
| CCN(CC)C(=O)c1ccc(C(c2cccc3c2OC(C)(C)C3)N2CCN(Cc3cccnc3)CC2)cc1 (stereo not shown) [Example 3, 4-{(2,2-dimethyl-2,3-dihydro-1-benzofuran-7-yl)[4-(3-pyridinylmethyl)-1-piperazinyl]methyl}-N,N-diethylbenzamide Dihydrochloride] |  | 103 |  |  |  |  |  |  |  | 93 | 19.5 |
